Source: patent US7691874B2, “Neuroprotective properties of dextrorotatory morphinans” (priority 2004, dated 2010)
Marks after values point to notes of the source that are not given here.

Assays:
MA-treated mice [1] = experiment: Hypokinesia induced by MA; assay type: in vivo; conditions: 12 and 24 mg/kg; 3 days after final MA
LPS-treated mice [2] = experiment: Hypokinesia induced by intrastriatal LPS; conditions: 12 or 24 mg/kg, twice before bilateral intrastriatal LPS
Description: Male mice were anesthetized with chloral hydrate (200 mg/kg, i.p.) and positioned in a small-animal stereotaxic apparatus. […] LPS (2 μg in a volume of 2 μl of PBS) was injected into both sides of the striatum over a period of 2 min, and the injection needle was kept in place for 2 min after the injection. Control animals received striatal injection with PBS.
Ten min after the last treatment with each drug, locomotor activity was measured for 30 min. After measuring the locomotor activity (i.e. 40 min after the last drug injection), the ‘absolute turn angular’ was analyzed in a 3-min monitoring period using an automated video-tracking system (Noldus Information Technology, Wagenin, The Netherlands) to examine locomotor patterns. […] Eight test boxes (40×40×30 cm high) were operated simultaneously by an IBM computer. Animals were studied individually during locomotion in each test box, where they were adapted for 10 min before starting the experiment. […] The distance traveled in cm by the animals in horizontal locomotor activity was analyzed (13, 25, 27). Data were collected and analyzed between 0900 and 1700 hr.

MPTP-treated mice [3] = experiment: Striatal dopamine and metabolites (HPLC-EC) in MPTP-treated mice; conditions: for Concentration DA in the striatum: mean ± S.E.M., 8 animals
Description: (§2) Each morphinan was administered 30 min prior to every injection of MPTP for last three days (from day 4th to day 7th). Animals were sacrificed 24 h after the last MPTP treatment.
Brains were rapidly removed and cut into 1 mm coronal sections on ice. The striatum was punched using a fine pasteur pipette (3, 21, 22), and stored at −70° C. DA and its metabolites, 3,4-dihydroxyphenylacetic acid (DOPAC) and homovanilic acid (HVA) were measured by HPLC-eletrochemical detection (3, 21, 22). Briefly, the striatum was homogenized in 0.2 M perchloric acid containing 3,4-dihydroxybenzylamine as an internal standard (10 mg wet weight of tissue per ml). The homogenate was centrifuged and a 20-μl aliquot of the supernatant was injected into the HPLC equipped with an ODS-C18 column. The mobile phase was comprised of 26 ml of acetonitrile, 21 ml of tetrahydrofuran and 960 ml of 0.15 M monochloroacetic acid (pH 3.0) containing 50 mg/l of EDTA and 200 mg/l of sodium octyl sulfate. The amount of DA, DOPAC and HVA were determined by comparison of peak height ratio of tissue sample with standards, and were expressed in nanograms per 100 mg of wet weight of tissue.
Each morphinan was administered 30 min before every injection of MPTP for last three days. Animals were sacrificed at 24 h after the last MPTP injection.

MA-treated mice [4] = experiment: MA-induced hyperlocomotion; assay type: in vivo; conditions: morphinan 20 mg/kg i.p. 30 min before MA 1 mg/kg i.p./day x 7
Description: FIGS. 39A-39D show effect of morphinans on the MA-induced hyperactivity in the mice. Each morphinan (20 mg/kg, i.p.) was administered 30 minutes prior to MA (1 mg/kg, i.p.). All treatments were performed for 7 days.

MA-treated mice [5] = experiment: Nigral TH-IR in MA-treated mice; conditions: 24 mg/kg i.p.
C57 BL/6 mice [6] = experiment: Conditioned place preference (psychological dependence) following repeated administration of morphinans or PCP; assay type: in vivo; conditions: 20 or 40 mg/kg i.p. (PCP 2.5 or 5 mg/kg); vs saline
Description: On day 14, the guillotine doors were raised. […] Data were analyzed between 0900 and 1700 hr.

σ1 receptors = σ1 receptors (Homo sapiens, UniProt Q99720); conditions: cited from earlier work
MA-treated mice [7] = experiment: MA-induced FRA-IR in the striatum; conditions: morphinan 20 mg/kg i.p.; MA 1 mg/kg i.p./day x 7
Description: Therefore, brains were removed and used for immunocytochemical analysis at 18 h after the final cocaine/MA treatment. The coronal sections containing striatum were processed for FRA immunocytochemistry. […] The FRA antibody was used at 1:2,000 as the optimal dilution. The FRA-IR in the striatum was calculated using image analysis systems with a polaroid digital microscopic camera (Optimas version 6.2).

MA-treated mice [8] = experiment: Methamphetamine (MA)-induced hyperthermia; assay type: in vivo; conditions: 24 mg/kg; MA 7.5 mg/kg i.p. x 4 at 2-h intervals
Description: Rectal temperature was recorded at 40 min after each MA treatment. […] Mice were sacrificed at 3 days after final MA injection.
FIGS. 10A-10B show effect of morphinans on the methamphetamine (MA)-induced hyperthermia. Mice received i.p. injections of MA (four injections of 7.5 mg/kg each) at 2-h intervals under the ambient temperature of 22.0±0.5° C. Temperatures were recorded at 40 min after each MA treatment (Arrow=MA injection).

LPS-treated mice [9] = experiment: Nigral TH-IR in LPS-treated mice; assay type: in vivo; conditions: 24 mg/kg i.p.
Description: FIGS. 8A-8B. […] Magnification=40×.
(§1) Control animals received striatal injection with PBS.

MPTP-treated mice [10] = experiment: Hypokinesia (reduction in locomotor activity) induced by MPTP; assay type: in vivo; conditions: 12 or 24 mg/kg i.p. 30 min before MPTP (20 mg/kg/day x 7), last three days
LPS-treated mice [11] = experiment: Striatal dopamine and metabolites in LPS-treated mice; assay type: in vivo; conditions: for Concentration DA in the striatum: 3 weeks after LPS
Description: as §1
Mice were sacrificed at 3 weeks after LPS treatment.

MPTP-treated mice [12] = experiment: Nigral tyrosine hydroxylase-like immunoreactivity in MPTP-treated mice; conditions: 24 mg/kg i.p.
Description: as §2

MA-treated mice [13] = experiment: MA-induced behavioural sensitization; conditions: morphinan 20 mg/kg i.p., last 3 days of wash-out (Ex. 3.12)
Description: Morphinans (20 mg/kg, i.p.) were administered last 3 days of wash-out period.

[14] = system: kainate or maximal electric shock; conditions: kainate (24) or maximal electric shock (27); cited from earlier work
C57 BL/6 mice [15] = experiment: Locomotor activity and locomotor pattern following repeated administration of morphinans or PCP; assay type: in vivo
cocaine-treated mice [16] = experiment: Cocaine-induced Fos-related antigen-immunoreactivity (FRA-IR) in the striatum; conditions: cocaine 5 mg/kg; morphinan 20 mg/kg i.p.
[17] = system: NMDA receptor associated PCP sites; conditions: cited from earlier work
cocaine-treated mice [18] = experiment: Cocaine-induced hyperlocomotion; assay type: in vivo
How it was run: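 Morphinans (15 and 30 mg/kg, i.p.) or dimemorfan (20 mg/kg, i.p.) given 30 minutes before cocaine (5 and 20 mg/kg, i.p.); treatments continued for 7 days. Locomotion scored as central activity (non-specific movement in box center) and marginal activity (circling).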

MA-treated mice [19] = experiment: Striatal dopamine and metabolites in MA-treated mice; assay type: in vivo; conditions: for Concentration DA in the striatum: 3 days after final MA
Description: Mice were sacrificed at 3 days after final MA injection.

σ1 receptors, sequence (Q99720 whole entry): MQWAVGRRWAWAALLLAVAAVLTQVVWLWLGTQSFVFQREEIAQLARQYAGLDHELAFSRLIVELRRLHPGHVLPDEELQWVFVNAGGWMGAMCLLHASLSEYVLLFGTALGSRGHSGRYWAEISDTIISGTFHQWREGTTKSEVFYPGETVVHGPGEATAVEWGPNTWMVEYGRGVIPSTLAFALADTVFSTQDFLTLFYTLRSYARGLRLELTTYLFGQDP

For `CN1CC[C@]23CCCC[C@H]2[C@H]1Cc1ccc(OCC2CC2)cc13` [CM, 3-cyclopropylmethoxy-17-methylmorphinan], the “effect on MA-induced reduction in locomotor activity” value (MA-treated mice [1]) was “significantly prevented MA-induced reduction in locomotor activity”, the “effect on LPS-induced decrease in locomotor activity” value (LPS-treated mice [2]) was “significantly prevented LPS-induced decrease in locomotor activity” and the “effect on MPTP-induced reductions in striatal DA, DOPAC and HVA” value (MPTP-treated mice [3]; 24 mg/kg pretreatment) was “significantly protected”. The “Concentration DOPAC in the striatum” value (MPTP-treated mice [3]; morphinan 12 (mg/kg) + MPTP) was 58 ± 6 ng/100 mg wet tissue, the “Concentration HVA in the striatum” value (MPTP-treated mice [3]; morphinan 12 (mg/kg) + MPTP) was 68 ± 9 ng/100 mg wet tissue and the “Concentration DA in the striatum” value (MPTP-treated mice [3]; morphinan 12 (mg/kg) + MPTP) was 489 ± 69 ng/100 mg wet tissue. For the same compound, the “Concentration DOPAC in the striatum” value (MPTP-treated mice [3]; morphinan 24 (mg/kg) + MPTP) was 78 ± 10^b ng/100 mg wet tissue, the “Concentration HVA in the striatum” value (MPTP-treated mice [3]; morphinan 24 (mg/kg) + MPTP) was 89 ± 7^b ng/100 mg wet tissue and the “Concentration DA in the striatum” value (MPTP-treated mice [3]; morphinan 24 (mg/kg) + MPTP) was 587 ± 76^b ng/100 mg wet tissue. The “effect on MA-induced hyperlocomotion” value (MA-treated mice [4]) was “consistently effective in attenuating hyperlocomotion induced by MA”, the “effect on MA-induced decrease in nigral TH-positive cells” value (MA-treated mice [5]) was “significantly attenuated the decrease in TH-positive cells” and the “conditioned place preference (CPP)” value (C57 BL/6 mice [6]) was “almost no CPP effects”. The “affinity for σ1 receptors” value (σ1 receptors) was “high affinity ligands”, the “effect on MA-induced FRA-IR in the striatum” value (MA-treated mice [7]) was “apparently attenuated” and the “effect on MA-induced hyperthermia (rectal temperature)” value (MA-treated mice [8]) was “attenuated by all morphinans used in this study”. The “effect on LPS-induced reduction in nigral TH-positive cells” value (LPS-treated mice [9]) was “significantly attenuated the reduction in TH-positive cells”, the “effect on MPTP-induced reduction in locomotor activity” value (MPTP-treated mice [10]) was “significantly prevented MPTP-induced reduction in locomotor activity” and the “effect on LPS-induced reductions in striatal DA, DOPAC and HVA” value (LPS-treated mice [11]; 24 mg/kg pretreatment) was “significantly protected”. The “Concentration DOPAC in the striatum” value (LPS-treated mice [11]; morphinan 12 (mg/kg) + LPS) was 70 ± 7 ng/100 mg wet tissue, the “Concentration HVA in the striatum” value (LPS-treated mice [11]; morphinan 12 (mg/kg) + LPS) was 83 ± 6 ng/100 mg wet tissue and the “Concentration DA in the striatum” value (LPS-treated mice [11]; morphinan 12 (mg/kg) + LPS, mean ± S.E.M., 8 animals) was 482 ± 54 ng/100 mg wet tissue. The “Concentration DOPAC in the striatum” value (LPS-treated mice [11]; morphinan 24 (mg/kg) + LPS) was 86 ± 9^c ng/100 mg wet tissue, the “Concentration HVA in the striatum” value (LPS-treated mice [11]; morphinan 24 (mg/kg) + LPS) was 89 ± 7^c ng/100 mg wet tissue and the “Concentration DA in the striatum” value (LPS-treated mice [11]; morphinan 24 (mg/kg) + LPS) was 684 ± 56^c ng/100 mg wet tissue. The “effect on MPTP-induced decrease in nigral TH-positive cells” value (MPTP-treated mice [12]) was “significantly attenuated the decrease in TH-positive cells”, the “effect on MA-induced behavioural sensitization” value (MA-treated mice [13]) was “significantly reduced” and the anticonvulsant effect [14] was “exhibited anticonvulsant effects”. For the same compound, the “locomotor pattern (tracings)” value (C57 BL/6 mice [15]; 40 mg/kg i.p. (PCP 5 mg/kg), FIG. 3) was “did not produce significant marginal activity”, the “marginal activity (circling behaviour; absolute turn angular)” value (C57 BL/6 mice [15]; 20 or 40 mg/kg i.p./day x 7 (PCP 2.5 or 5 mg/kg), 3-min period, vs saline) was “did not significantly affect marginal activity” and the “locomotor activity (total distance moved)” value (C57 BL/6 mice [15]; 20 or 40 mg/kg i.p./day x 7 days, 30 min after final treatment, vs saline) was “comparable to that with saline”. The “effect on cocaine-induced FRA-IR in the striatum” value (cocaine-treated mice [16]) was “apparently attenuated”, the “affinity for NMDA receptor associated PCP sites” value [17] was “very low affinities” and the “effect on locomotor activity induced by low dose of cocaine” value (cocaine-treated mice [18]; cocaine 5 mg/kg i.p. x 7 days, morphinan 15 or 30 mg/kg (DF 20 mg/kg) i.p.) was “consistently attenuated locomotor activity induced by a low dose of cocaine”. The “effect on hyperactivity induced by high dose of cocaine” value (cocaine-treated mice [18]; cocaine 20 mg/kg i.p. x 7 days, morphinan 15 or 30 mg/kg i.p. 30 min before) was “not uniform”, the “effect on MA-induced reductions in striatal DA, DOPAC and HVA” value (MA-treated mice [19]; 24 mg/kg pretreatment) was “significantly protected” and the “Concentration DOPAC in the striatum” value (MA-treated mice [19]; morphinan 12 (mg/kg) + MA) was 82 ± 10 ng/100 mg wet tissue. The “Concentration HVA in the striatum” value (MA-treated mice [19]; morphinan 12 (mg/kg) + MA) was 83 ± 9 ng/100 mg wet tissue, the “Concentration DA in the striatum” value (MA-treated mice [19]; morphinan 12 (mg/kg) + MA, mean ± S.E.M., 8 animals) was 668 ± 81 ng/100 mg wet tissue and the “Concentration DOPAC in the striatum” value (MA-treated mice [19]; morphinan 24 (mg/kg) + MA) was 99 ± 10^b ng/100 mg wet tissue. The “Concentration HVA in the striatum” value (MA-treated mice [19]; morphinan 24 (mg/kg) + MA) was 94 ± 12^b ng/100 mg wet tissue and the “Concentration DA in the striatum” value (MA-treated mice [19]; morphinan 24 (mg/kg) + MA) was 777 ± 66^c ng/100 mg wet tissue.
